Test results as given in US20110182850A1, “ORGANIC COMPOUNDS AND THEIR USES” (priority 2009, published 2011).

Molecular target: T1, HCV NS3-4A serine protease (full-length NS3-4A protein, genotype 1a, strain HCV-1) (Hepatitis C virus genotype 1a, UniProt P26664)
T1 construct: using the full-length NS3-4A protein (genotype 1a, strain HCV-1)
Experiment: HCV NS3-4A protease assay
Assay type: biochemical
Details: Protease IC50
Experimental: The inhibitory activity of certain compounds of Table A against HCV NS3-4A serine protease is determined in a homogenous assay using the full-length NS3-4A protein (genotype 1a, strain HCV-1) and a commercially available internally-quenched fluorogenic peptide substrate as described by Taliani, M., et al. 1996 Anal. Biochem. 240:60-67, which is incorporated by reference in its entirety.

T1 sequence (P26664 1658-1711): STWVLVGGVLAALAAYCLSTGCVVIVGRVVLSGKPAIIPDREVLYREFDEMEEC
T1 sequence (P26664 1027-1657): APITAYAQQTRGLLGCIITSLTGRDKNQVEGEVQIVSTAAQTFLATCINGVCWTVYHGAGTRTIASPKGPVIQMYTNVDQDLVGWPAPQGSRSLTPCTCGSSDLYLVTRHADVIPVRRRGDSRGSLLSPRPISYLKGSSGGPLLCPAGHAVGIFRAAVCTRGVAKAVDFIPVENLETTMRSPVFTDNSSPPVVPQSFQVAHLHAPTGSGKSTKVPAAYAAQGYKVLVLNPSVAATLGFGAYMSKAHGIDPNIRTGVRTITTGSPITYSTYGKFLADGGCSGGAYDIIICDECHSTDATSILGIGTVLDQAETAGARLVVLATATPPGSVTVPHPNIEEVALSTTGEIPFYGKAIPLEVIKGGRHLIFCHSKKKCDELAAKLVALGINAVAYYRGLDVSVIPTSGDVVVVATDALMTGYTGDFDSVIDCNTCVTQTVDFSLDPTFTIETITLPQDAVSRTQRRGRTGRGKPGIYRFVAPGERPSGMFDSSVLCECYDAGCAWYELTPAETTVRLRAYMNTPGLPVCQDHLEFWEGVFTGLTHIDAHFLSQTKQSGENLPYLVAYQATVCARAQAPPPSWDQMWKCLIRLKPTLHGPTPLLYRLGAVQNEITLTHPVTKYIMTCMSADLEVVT

| Structure (SMILES) | IC50 [nM] |
| --- | --- |
| CCCC(NC(=O)[C@@H]1C[C@@]2(CN1C(=O)C(NC(=O)[C@@H](NC(=O)C(C)(C)N1CCCC1)C1CCCCC1)C(C)(C)C)C(C)(C)C21CCC1)C(=O)NS(=O)(=O)C1CC1 (stereo partly drawn) [Compound 2, (5R,8S)-7-[2-({(2S)-2-cyclohexyl-2-[(2-methyl-2-pyrrolidin-1-ylpropanoyl)amino]acetyl}amino)-3,3-dimethylbutanoyl]-N-{1-[(cyclopropylsulfonyl)carba-moyl]butyl}-10,10-dimethyl-7-azadispiro[3.0.4.1]decane-8-carboxamide] | 2250 |
| CC(C)(C)[C@H](NC(=O)[C@@H](NC(=O)C(C)(C)N1CCCC1)C1CCCCC1)C(=O)N1C[C@]2(C[C@H]1C(=O)NC1(C(=O)NS(=O)(=O)C3CC3)CC1)C(C)(C)C21CCC1 [Compound 3, (5R,8S)-7-[(2S)-2-({(2S)-2-cyclohexyl-2-[(2-methyl-2-pyrrolidin-1-ylpropanoyl)amino]acetyl}amino)-3,3-dimethylbutanoyl]-N-{1-[(cyclopropylsulfonyl)carba-moyl]cyclopropyl}-10,10-dimethyl-7-azadispiro[3.0.4.1]decane-8-carboxamide] | 45 |
| C=C[C@@H]1C[C@]1(NC(=O)[C@@H]1C[C@@]2(CN1C(=O)[C@@H](NC(=O)[C@@H](NC(=O)[C@@H]1CCCCN1C(C)C)C(C)(C)C)C(C)(C)C)C(C)(C)C21CCC1)C(=O)NS(=O)(=O)c1cccc2cc[nH]c12 [Compound 4, (5R,8S)-N-{(1R,2S)-1-[(1H-indol-7-ylsulfonyl)carbamoyl]-2-vinylcyclopropyl}-7-[(2S)-2-{[(2S)-2-({[(2S)-1-isopropylpiperidin-2-yl]carbonyl}amino)-3,3-dimethylbutanoyl]amino}-3,3-dimethylbutanoyl]-10,10-dimethyl-7-azadispiro[3.0.4.1]decane-8-carboxamide] | 0.8 |
| C=C[C@@H]1C[C@]1(NC(=O)[C@@H]1C[C@@]2(CN1C(=O)C(NC(=O)[C@@H](NC(=O)OC(C)(C)C)C(C)(C)C)C(C)(C)C)C(C)(C)C21CCC1)C(=O)NS(=O)(=O)c1ccccc1 (stereo partly drawn) [Compound 5, tert-butyl {(1S)-1-[(1-{[(5R,8S)-10,10-dimethyl-8-({(1R,2S)-1-[(phenylsulfonyl)carbamoyl]-2-vinylcyclopropyl}carbamoyl)-7-azadispiro[3.0.4.1]dec-7-yl]carbonyl}-2,2-dimethylpropyl)carbamoyl]-2,2-dimethylpropyl}carbamate] | 1950 |
| C=C[C@@H]1C[C@]1(NC(=O)[C@@H]1C[C@@]2(CN1C(=O)[C@@H](NC(=O)[C@@H](NC(=O)OC(C)(C)C)C(C)(C)C)C(C)(C)C)C(C)(C)C21CCC1)C(=O)NS(=O)(=O)C1CC1 [Compound 6, tert-butyl [(1S)-1-{[(1S)-1-{[(5R,8S)-8-({(1R,2S)-1-[(cyclopropylsulfonyl)carba-moyl]-2-vinylcyclopropyl}carbamoyl)-10,10-dimethyl-7-azadispiro[3.0.4.1]dec-7-yl]carbonyl}-2,2-dimethylpropyl]carbamoyl}-2,2-dimethylpropyl]carbamate] | 80 |
| C=C[C@@H]1C[C@]1(NC(=O)[C@@H]1C[C@@]2(CN1C(=O)[C@@H](NC(=O)[C@@H](NC(=O)[C@@H]1CCCN(CCF)C1)C(C)(C)C)C(C)(C)C)C(C)(C)C21CCC1)C(=O)NS(=O)(=O)C1CC1 [Compound 8, (5R,8S)-N-{(1R,2S)-1-[(cyclopropylsulfonyl)carba-moyl]-2-vinylcyclopropyl}-7-[(2S)-2-{[(2S)-2-({[(3R)-1-(2-fluoroethyl)piperidin-3-yl]carbonyl}amino)-3,3-dimethylbutanoyl]amino}-3,3-dimethylbutanoyl]-10,10-dimethyl-7-azadispiro[3.0.4.1]decane-8-carboxamide] | 25 |
| C=C[C@@H]1C[C@]1(NC(=O)[C@@H]1C[C@@]2(CN1C(=O)[C@@H](NC(=O)[C@@H](NC(=O)[C@@H]1CCCCN1CCF)C(C)(C)C)C(C)(C)C)C(C)(C)C21CCC1)C(=O)NS(=O)(=O)C1CC1 [Compound 9, (5R,8S)-N-{(1R,2S)-1-[(cyclopropylsulfonyl)carba-moyl]-2-vinylcyclopropyl}-7-[(2S)-2-{[(2S)-2-({[(2S)-1-(2-fluoroethyl)piperidin-2-yl]carbonyl}amino)-3,3-dimethylbutanoyl]amino}-3,3-dimethylbutanoyl]-10,10-dimethyl-7-azadispiro[3.0.4.1]decane-8-carboxamide] | 8 |

Same assay, conditions: read-out: Protease IC50

| Structure (SMILES) | IC50 [nM] |
| --- | --- |
| C=C[C@@H]1C[C@]1(NC(=O)[C@@H]1C[C@@]2(CN1C(=O)[C@@H](NC(=O)OC(C)(C)C)C(C)C)C(C)(C)C21CCC1)C(=O)NS(=O)(=O)C1CC1 [Compound 1, tert-butyl [(1S)-1-{[(5R,8S)-8-({(1R,2S)-1-[(cyclopropylsulfonyl)carba-moyl]-2-vinylcyclopropyl}carbamoyl)-10,10-dimethyl-7-azadispiro[3.0.4.1]dec-7-yl]carbonyl}-2-methylpropyl]carbamate] | 100 |
| C=C[C@@H]1C[C@]1(NC(=O)[C@@H]1C[C@@]2(CN1C(=O)[C@@H](NC(=O)CC1CCCCC1)C(C)(C)C)C(C)(C)C21CCC1)C(=O)NS(=O)(=O)C1CC1 [Compound 7, (5R,8S)-7-{(2S)-2-[(cyclohexylacetyl)amino]-3,3-dimethylbutanoyl}-N-{(1R,2S)-1-[(cyclopropylsulfonyl)carba-moyl]-2-vinylcyclopropyl}-10,10-dimethyl-7-azadispiro[3.0.4.1]decane-8-carboxamide] | 100 |
| C=C[C@@H]1C[C@]1(NC(=O)[C@@H]1C[C@@]2(CN1C(=O)[C@@H](NC(=O)OC1CCCC1)C(C)(C)C)C(C)(C)C21CCC1)C(=O)NS(=O)(=O)C1CC1 [Compound 10, cyclopentyl [(1S)-1-{[(5R,8S)-8-({(1R,2S)-1-[(cyclopropylsulfonyl)carba-moyl]-2-vinylcyclopropyl}carbamoyl)-10,10-dimethyl-7-azadispiro[3.0.4.1]dec-7-yl]carbonyl}-2,2-dimethylpropyl]carbamate] | 25 |
| C=C[C@@H]1C[C@]1(NC(=O)[C@@H]1C[C@@]2(CN1C(=O)[C@@H](NC(=O)c1ccc3cnccc3n1)C(C)(C)C)C(C)(C)C21CCC1)C(=O)NS(=O)(=O)C1CC1 [Compound 11, (5R,8S)-N-{(1R,2S)-1-[(cyclopropylsulfonyl)carba-moyl]-2-vinylcyclopropyl}-7-{(2S)-3,3-dimethyl-2-[(1,6-naphthyridin-2-ylcarbonyl)amino]butanoyl}-10,10-dimethyl-7-azadispiro[3.0.4.1]decane-8-carboxamide] | 200 |
| C=C[C@@H]1C[C@]1(NC(=O)[C@@H]1C[C@@]2(CN1C(=O)[C@@H](NCc1nc3ccccc3n1C)C(C)(C)C)C(C)(C)C21CCC1)C(=O)NS(=O)(=O)C1CC1 [Compound 12, (5R,8S)-N-{(1R,2S)-1-[(cyclopropylsulfonyl)carba-moyl]-2-vinylcyclopropyl}-7-[(2S)-3,3-dimethyl-2-{[(1-methyl-1H-benzimidazol-2-yl)methyl]amino}butanoyl]-10,10-dimethyl-7-azadispiro[3.0.4.1]decane-8-carboxamide] | 400 |
| C=C[C@@H]1C[C@]1(NC(=O)[C@@H]1C[C@@]2(CN1C(=O)[C@@H](NS(=O)(=O)c1nccn1C)C(C)(C)C)C(C)(C)C21CCC1)C(=O)NS(=O)(=O)C1CC1 [Compound 13, (5R,8S)-N-{(1R,2S)-1-[(cyclopropylsulfonyl)carba-moyl]-2-vinylcyclopropyl}-7-[(2S)-3,3-dimethyl-2-{[(1-methyl-1H-imidazol-2-yl)sulfonyl]amino}butanoyl]-10,10-dimethyl-7-azadispiro[3.0.4.1]decane-8-carboxamide] | 250 |
